{
  "source": "ChEMBL document CHEMBL4630901",
  "about": "(2021)",
  "details_in_all_cases": "Compound concentration 10.0 uM",
  "key": {"[1]": {"target": "5-hydroxytryptamine receptor 2A (Homo sapiens) (UniProt P28223)", "sequence (P28223 whole entry)": "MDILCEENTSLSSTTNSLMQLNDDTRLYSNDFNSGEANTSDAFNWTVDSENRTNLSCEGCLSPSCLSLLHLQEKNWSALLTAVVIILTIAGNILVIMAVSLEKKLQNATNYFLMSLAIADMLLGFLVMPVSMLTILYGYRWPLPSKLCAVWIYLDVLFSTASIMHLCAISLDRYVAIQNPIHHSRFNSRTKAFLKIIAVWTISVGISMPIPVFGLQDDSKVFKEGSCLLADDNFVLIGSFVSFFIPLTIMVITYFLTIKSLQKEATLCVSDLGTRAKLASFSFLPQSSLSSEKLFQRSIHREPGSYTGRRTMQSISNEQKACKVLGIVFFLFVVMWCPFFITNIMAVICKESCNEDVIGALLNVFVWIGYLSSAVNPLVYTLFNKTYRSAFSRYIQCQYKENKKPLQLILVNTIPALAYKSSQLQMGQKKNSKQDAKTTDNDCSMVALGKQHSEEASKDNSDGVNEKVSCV"}, "[2]": {"target": "T1, Muscarinic acetylcholine receptor M1 (Homo sapiens) (UniProt P11229)", "T1 sequence (whole entry)": "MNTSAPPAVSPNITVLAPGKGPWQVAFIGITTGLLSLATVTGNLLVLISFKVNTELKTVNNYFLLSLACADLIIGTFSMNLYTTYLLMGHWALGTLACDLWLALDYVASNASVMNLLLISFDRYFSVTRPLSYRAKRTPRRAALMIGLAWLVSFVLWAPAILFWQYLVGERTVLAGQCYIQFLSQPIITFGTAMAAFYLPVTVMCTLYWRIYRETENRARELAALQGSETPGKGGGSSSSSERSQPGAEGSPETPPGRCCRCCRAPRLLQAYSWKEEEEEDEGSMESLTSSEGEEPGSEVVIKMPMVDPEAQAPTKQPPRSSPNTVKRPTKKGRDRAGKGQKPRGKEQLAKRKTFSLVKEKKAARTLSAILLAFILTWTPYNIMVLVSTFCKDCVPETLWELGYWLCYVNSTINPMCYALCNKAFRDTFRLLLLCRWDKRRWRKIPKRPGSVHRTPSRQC"}, "[3]": {"target": "Delta-type opioid receptor (Homo sapiens) (UniProt P41143)", "sequence (P41143 whole entry)": "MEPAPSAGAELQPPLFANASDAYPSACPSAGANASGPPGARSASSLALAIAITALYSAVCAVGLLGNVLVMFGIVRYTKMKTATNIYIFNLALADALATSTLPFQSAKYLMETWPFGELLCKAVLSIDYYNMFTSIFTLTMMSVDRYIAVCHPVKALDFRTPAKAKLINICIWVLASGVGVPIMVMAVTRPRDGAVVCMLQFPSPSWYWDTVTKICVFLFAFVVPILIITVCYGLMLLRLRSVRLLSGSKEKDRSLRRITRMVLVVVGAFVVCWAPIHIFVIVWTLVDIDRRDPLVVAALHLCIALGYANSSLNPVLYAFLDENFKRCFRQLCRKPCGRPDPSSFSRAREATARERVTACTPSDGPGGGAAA"}, "[4]": {"target": "T2, Muscarinic acetylcholine receptor M4 (Homo sapiens) (UniProt P08173)", "T2 sequence (whole entry)": "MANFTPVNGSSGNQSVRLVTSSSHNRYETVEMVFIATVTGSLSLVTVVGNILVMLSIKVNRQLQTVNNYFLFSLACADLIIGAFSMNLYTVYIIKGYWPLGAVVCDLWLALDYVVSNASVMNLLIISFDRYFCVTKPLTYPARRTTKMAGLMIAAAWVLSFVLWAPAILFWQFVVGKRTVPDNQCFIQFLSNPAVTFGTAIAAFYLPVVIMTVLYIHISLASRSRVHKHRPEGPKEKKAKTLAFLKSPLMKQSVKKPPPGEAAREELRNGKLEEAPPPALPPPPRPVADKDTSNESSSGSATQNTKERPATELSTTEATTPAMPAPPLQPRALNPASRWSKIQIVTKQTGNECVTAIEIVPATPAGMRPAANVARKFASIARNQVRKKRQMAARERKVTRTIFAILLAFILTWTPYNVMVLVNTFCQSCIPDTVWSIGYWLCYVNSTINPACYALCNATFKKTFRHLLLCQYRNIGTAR"}, "[5]": {"target": "Glutamate NMDA receptor (Rattus norvegicus) (UniProt P35439+Q00959+Q00960+Q00961+Q62645+Q8VHN2+Q9R1M7)"}, "[6]": {"target": "T3, Alpha-1A adrenergic receptor (Homo sapiens) (UniProt P35348)", "T3 sequence (whole entry)": "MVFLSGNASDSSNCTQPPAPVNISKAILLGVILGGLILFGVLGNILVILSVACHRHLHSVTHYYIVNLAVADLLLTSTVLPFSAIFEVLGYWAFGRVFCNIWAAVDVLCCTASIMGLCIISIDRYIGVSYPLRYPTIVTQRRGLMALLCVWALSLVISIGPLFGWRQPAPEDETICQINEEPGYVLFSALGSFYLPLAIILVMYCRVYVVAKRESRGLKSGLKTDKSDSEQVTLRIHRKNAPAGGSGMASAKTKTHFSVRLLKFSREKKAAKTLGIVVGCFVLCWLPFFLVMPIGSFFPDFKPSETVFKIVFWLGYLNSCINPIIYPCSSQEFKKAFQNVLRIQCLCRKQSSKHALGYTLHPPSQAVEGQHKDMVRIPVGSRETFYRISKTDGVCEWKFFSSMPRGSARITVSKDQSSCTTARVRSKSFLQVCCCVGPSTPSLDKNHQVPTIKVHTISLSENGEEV"}, "[7]": {"target": "Histamine H2 receptor (Homo sapiens) (UniProt P25021)", "sequence (P25021 whole entry)": "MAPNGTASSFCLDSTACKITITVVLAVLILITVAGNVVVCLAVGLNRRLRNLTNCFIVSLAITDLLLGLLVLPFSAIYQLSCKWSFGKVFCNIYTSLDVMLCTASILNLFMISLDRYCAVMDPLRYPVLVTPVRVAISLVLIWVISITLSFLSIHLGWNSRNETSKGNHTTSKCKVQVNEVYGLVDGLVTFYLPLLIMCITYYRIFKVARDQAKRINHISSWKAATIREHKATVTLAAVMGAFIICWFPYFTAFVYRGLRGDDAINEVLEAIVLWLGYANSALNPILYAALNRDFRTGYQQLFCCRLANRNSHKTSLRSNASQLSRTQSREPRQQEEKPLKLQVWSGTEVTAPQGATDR"}, "[8]": {"target": "Kappa-type opioid receptor (Homo sapiens) (UniProt P41145)", "sequence (P41145 whole entry)": "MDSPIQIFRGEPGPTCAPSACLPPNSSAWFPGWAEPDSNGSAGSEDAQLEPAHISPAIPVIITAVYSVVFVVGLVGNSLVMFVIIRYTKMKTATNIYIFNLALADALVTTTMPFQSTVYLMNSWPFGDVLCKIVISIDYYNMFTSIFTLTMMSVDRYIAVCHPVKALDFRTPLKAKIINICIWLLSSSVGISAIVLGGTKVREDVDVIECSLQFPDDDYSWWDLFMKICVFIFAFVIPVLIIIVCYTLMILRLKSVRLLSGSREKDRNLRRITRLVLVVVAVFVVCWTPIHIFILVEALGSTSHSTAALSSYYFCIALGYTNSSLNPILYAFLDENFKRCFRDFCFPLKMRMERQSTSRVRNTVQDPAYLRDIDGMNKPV"}, "[9]": {"target": "Alpha-1D adrenergic receptor (Homo sapiens) (UniProt P25100)", "sequence (P25100 whole entry)": "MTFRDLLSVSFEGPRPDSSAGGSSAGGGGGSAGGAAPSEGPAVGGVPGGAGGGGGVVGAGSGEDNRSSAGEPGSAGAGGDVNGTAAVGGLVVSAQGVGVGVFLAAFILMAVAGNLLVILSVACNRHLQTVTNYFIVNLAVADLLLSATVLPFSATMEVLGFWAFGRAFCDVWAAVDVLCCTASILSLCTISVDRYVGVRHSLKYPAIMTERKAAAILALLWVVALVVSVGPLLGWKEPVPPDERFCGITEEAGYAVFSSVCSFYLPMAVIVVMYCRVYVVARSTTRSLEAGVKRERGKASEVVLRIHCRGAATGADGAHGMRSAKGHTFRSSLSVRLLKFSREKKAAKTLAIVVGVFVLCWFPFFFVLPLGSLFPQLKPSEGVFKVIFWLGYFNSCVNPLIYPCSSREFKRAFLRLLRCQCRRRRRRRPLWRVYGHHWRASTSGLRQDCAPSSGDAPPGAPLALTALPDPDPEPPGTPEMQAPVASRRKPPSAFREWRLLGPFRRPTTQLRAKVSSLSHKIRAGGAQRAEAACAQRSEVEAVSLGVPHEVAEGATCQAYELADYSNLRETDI"}, "[10]": {"target": "Growth hormone secretagogue receptor type 1 (Homo sapiens) (UniProt Q92847)", "sequence (Q92847 whole entry)": "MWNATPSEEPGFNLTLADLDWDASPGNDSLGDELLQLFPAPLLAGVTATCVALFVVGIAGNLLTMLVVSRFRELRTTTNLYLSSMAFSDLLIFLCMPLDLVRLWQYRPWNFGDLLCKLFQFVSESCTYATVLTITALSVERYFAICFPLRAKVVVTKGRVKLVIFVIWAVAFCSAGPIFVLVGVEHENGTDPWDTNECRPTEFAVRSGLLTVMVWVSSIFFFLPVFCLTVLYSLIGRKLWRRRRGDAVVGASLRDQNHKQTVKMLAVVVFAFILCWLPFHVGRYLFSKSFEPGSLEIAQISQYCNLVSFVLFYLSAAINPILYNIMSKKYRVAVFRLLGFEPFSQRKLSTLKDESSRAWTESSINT"}, "[11]": {"target": "D(1A) dopamine receptor (Homo sapiens) (UniProt P21728)", "sequence (P21728 whole entry)": "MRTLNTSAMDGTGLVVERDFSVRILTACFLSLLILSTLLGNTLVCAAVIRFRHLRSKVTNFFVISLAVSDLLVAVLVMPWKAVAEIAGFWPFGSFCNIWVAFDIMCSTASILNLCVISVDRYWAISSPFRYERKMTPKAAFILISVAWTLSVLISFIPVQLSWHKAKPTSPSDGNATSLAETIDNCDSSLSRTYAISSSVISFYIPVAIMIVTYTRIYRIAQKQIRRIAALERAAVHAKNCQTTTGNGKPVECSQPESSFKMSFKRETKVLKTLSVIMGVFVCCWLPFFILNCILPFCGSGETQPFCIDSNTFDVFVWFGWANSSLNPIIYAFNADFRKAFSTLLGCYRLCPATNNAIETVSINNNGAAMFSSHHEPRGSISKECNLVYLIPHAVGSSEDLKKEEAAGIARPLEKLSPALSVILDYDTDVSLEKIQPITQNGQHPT"}, "[12]": {"target": "Muscarinic acetylcholine receptor M5 (Homo sapiens) (UniProt P08912)", "sequence (P08912 whole entry)": "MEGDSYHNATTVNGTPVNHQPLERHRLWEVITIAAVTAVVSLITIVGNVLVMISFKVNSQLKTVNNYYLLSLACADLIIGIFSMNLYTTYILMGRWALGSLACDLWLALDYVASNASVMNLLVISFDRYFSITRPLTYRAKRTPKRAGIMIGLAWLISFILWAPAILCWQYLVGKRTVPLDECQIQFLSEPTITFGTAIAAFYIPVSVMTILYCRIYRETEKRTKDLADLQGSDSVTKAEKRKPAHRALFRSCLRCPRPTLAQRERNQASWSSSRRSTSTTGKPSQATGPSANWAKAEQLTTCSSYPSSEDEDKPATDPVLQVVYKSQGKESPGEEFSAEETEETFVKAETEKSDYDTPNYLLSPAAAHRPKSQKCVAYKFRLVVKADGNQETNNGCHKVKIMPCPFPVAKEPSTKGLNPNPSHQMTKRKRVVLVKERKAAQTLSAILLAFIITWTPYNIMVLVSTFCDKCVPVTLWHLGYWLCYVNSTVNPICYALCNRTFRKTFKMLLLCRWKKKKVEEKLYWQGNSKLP"}, "[13]": {"target": "GABA-A receptor; anion channel (Rattus norvegicus) (UniProt O09028+P15431+P18506+P18508+P19969+P20236+P23574+P23576+P28471+P28473+P30191+P62813+P63079+P63138+Q91ZM7+Q9ES14)"}, "[14]": {"target": "Sigma intracellular receptor 2 (Homo sapiens, UniProt Q5BJF2)", "sequence (Q5BJF2 whole entry)": "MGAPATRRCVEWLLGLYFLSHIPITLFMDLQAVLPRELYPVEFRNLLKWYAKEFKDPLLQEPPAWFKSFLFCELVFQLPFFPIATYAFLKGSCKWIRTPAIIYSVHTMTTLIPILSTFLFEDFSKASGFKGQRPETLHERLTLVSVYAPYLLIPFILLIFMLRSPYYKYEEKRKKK"}, "[15]": {"target": "Sodium-dependent dopamine transporter (Homo sapiens) (UniProt Q01959)"}, "[16]": {"target": "Estrogen receptor (Homo sapiens) (UniProt P03372)", "sequence (P03372 whole entry)": "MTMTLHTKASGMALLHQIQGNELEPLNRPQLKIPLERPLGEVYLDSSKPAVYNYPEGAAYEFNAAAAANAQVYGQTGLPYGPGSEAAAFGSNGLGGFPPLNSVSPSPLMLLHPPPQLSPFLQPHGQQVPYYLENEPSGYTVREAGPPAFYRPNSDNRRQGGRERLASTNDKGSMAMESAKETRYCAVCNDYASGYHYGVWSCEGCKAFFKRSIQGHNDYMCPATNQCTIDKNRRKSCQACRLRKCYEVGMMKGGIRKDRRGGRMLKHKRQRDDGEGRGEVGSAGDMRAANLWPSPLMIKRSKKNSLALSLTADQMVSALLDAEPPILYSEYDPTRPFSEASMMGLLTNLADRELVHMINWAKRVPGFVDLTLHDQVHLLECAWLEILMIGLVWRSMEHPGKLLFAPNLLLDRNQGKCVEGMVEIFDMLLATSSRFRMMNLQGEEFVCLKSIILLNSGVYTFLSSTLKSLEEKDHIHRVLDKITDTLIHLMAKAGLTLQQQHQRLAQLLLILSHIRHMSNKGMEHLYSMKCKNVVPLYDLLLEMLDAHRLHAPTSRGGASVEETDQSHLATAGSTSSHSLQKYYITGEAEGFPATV"}, "[17]": {"target": "5-hydroxytryptamine receptor 7 (Homo sapiens) (UniProt P34969)", "sequence (P34969 whole entry)": "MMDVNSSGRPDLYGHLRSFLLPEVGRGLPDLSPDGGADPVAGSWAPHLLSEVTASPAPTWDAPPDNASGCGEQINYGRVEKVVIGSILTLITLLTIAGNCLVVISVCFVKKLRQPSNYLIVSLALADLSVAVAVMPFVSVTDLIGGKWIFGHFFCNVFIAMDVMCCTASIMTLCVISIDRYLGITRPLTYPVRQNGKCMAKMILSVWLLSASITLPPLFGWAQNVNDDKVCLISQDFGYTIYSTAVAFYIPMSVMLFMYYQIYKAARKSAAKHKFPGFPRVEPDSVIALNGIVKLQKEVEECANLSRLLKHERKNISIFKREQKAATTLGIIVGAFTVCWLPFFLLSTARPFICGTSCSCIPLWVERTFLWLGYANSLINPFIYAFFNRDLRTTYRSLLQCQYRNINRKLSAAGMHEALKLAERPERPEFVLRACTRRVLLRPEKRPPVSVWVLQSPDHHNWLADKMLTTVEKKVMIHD"}, "[18]": {"target": "T4, Alpha-2A adrenergic receptor (Homo sapiens) (UniProt P08913)", "T4 sequence (whole entry)": "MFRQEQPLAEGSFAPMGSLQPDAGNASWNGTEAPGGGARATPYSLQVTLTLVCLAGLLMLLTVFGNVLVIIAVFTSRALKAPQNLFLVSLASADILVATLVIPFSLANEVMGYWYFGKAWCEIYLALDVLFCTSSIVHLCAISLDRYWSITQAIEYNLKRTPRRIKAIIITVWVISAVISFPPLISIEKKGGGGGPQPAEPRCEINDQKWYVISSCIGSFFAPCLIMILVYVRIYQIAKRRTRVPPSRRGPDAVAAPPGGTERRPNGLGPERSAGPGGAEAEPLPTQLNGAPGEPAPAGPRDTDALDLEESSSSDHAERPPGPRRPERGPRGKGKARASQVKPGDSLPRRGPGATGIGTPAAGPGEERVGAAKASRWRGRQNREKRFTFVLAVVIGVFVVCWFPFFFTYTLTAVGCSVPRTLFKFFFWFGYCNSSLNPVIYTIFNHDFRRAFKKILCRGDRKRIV"}},
  "data": [
    {"smiles": "Cc1c(N2CCCC2)nc2ccc(Br)cc2c1C(=O)NC[C@H](CCC(=O)O)c1ccccc1Cl", "note": "[BAY-6672]", "values": [
      {"measurement": "inhibition", "setting": "[1]", "result": 5.24, "unit": "%"},
      {"measurement": "inhibition", "setting": "[2]", "result": 14.3, "unit": "%"},
      {"measurement": "inhibition", "setting": "[3]", "result": 15.4, "unit": "%"},
      {"measurement": "inhibition", "setting": "[4]", "result": 19.4, "unit": "%"},
      {"measurement": "inhibition", "setting": "[5]", "result": 7, "unit": "%"},
      {"measurement": "inhibition", "setting": "[6]", "result": 1.72, "unit": "%"},
      {"measurement": "inhibition", "setting": "[7]", "result": 23.3, "unit": "%"},
      {"measurement": "inhibition", "setting": "[8]", "result": 15.4, "unit": "%"},
      {"measurement": "inhibition", "setting": "[9]", "result": 3.44, "unit": "%"},
      {"measurement": "inhibition", "setting": "[10]", "result": 3, "unit": "%"},
      {"measurement": "inhibition", "setting": "[11]", "result": 13.8, "unit": "%"},
      {"measurement": "inhibition", "setting": "[12]", "result": 9.92, "unit": "%"},
      {"measurement": "inhibition", "setting": "[13]", "result": 5.06, "unit": "%"},
      {"measurement": "inhibition", "setting": "[14]", "result": 8.52, "unit": "%"},
      {"measurement": "inhibition", "setting": "[15]", "result": 15, "unit": "%"},
      {"measurement": "inhibition", "setting": "[16]", "result": 1, "unit": "%"},
      {"measurement": "inhibition", "setting": "[17]", "result": 0.4, "unit": "%"},
      {"measurement": "inhibition", "setting": "[18]", "result": -4.59, "unit": "%"}
    ]},
    {"smiles": "Cc1c(N2CCNCC2)nc2ccc(Br)cc2c1C(=O)NC[C@H](CCC(=O)O)c1ccccc1Cl", "note": "[BAY-403]", "values": [
      {"measurement": "inhibition", "setting": "[1]", "result": 38, "unit": "%"},
      {"measurement": "inhibition", "setting": "[2]", "result": 8.42, "unit": "%"},
      {"measurement": "inhibition", "setting": "[3]", "result": 36, "unit": "%"},
      {"measurement": "inhibition", "setting": "[4]", "result": 16.2, "unit": "%"},
      {"measurement": "inhibition", "setting": "[6]", "result": 23.3, "unit": "%"},
      {"measurement": "inhibition", "setting": "[7]", "result": -4.15, "unit": "%"},
      {"measurement": "inhibition", "setting": "[8]", "result": 17.7, "unit": "%"},
      {"measurement": "inhibition", "setting": "[9]", "result": 16, "unit": "%"},
      {"measurement": "inhibition", "setting": "[11]", "result": 31.6, "unit": "%"},
      {"measurement": "inhibition", "setting": "[12]", "result": -0.13, "unit": "%"},
      {"measurement": "inhibition", "setting": "[13]", "result": 38.3, "unit": "%"},
      {"measurement": "inhibition", "setting": "[14]", "result": 60, "unit": "%"},
      {"measurement": "inhibition", "setting": "[17]", "result": 13, "unit": "%"},
      {"measurement": "inhibition", "setting": "[18]", "result": 65, "unit": "%"}
    ]}
  ]
}
